Test results published in US11840686B2, “Modulation of prekallikrein (PKK) expression” (Ionis Pharmaceuticals, Inc., priority 2013, dated 2023).
Strand notation (5' to 3'): a small letter for the sugar, then the base; units joined by * are phosphorothioate-linked, units joined directly phosphodiester-linked; [ ] holds rarer units or linkages, { } end groups; capitals alone tell only the bases. e = 2'-O-(2-methoxyethyl) (MOE); k = constrained ethyl (cEt); [5mC] = 5-methylcytosine; d = 2'-deoxy (DNA)

tested on: human PKK mRNA; test: Antisense inhibition of human PKK mRNA in HepaRG cells, 1,000 nM, MOE/deoxy/cEt oligonucleotides (Example 3); format: cell-based; details: HepaRG cells, 1,000 nM antisense oligonucleotide, Table 29
In short: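 HepaRG cells at 20,000 per well electroporated with 1,000 nM 16-mer MOE/cEt/deoxy gapmers (phosphorothioate, 5-methylcytosine). After about 24 h, PKK mRNA measured by qRT-PCR with primer probe set RTS3454, normalized to RIBOGREEN total RNA. Reported as percent inhibition versus untreated cells.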

Substance	% inhibition
548597 (eT*eG*kA*dA*dT*dA*d[5mC]*d[5mC]*dA*dT*d[5mC]*d[5mC]*d[5mC]*k[5mC]*kG*e[5mC]; antisense) [compound 548597]	50%

same assay, conditions: HepaRG cells, electroporation with 1,000 nM antisense oligonucleotide, approx. 24 hours, PKK mRNA by RT-PCR (RTS3454), relative to untreated control cells; Table 25 experiment

Substance	% inhibition
548162 (e[5mC]*e[5mC]*kT*d[5mC]*dG*d[5mC]*dA*dT*dT*dG*dT*d[5mC]*dA*kG*k[5mC]*e[5mC]; antisense) [compound 548162]	25%
548160 (eT*e[5mC]*kG*d[5mC]*dA*dT*dT*dG*dT*d[5mC]*dA*dG*d[5mC]*k[5mC]*k[5mC]*e[5mC]; antisense) [compound 548160]	60%
548158 (eG*e[5mC]*kA*dT*dT*dG*dT*d[5mC]*dA*dG*d[5mC]*d[5mC]*d[5mC]*k[5mC]*kT*eG; antisense) [compound 548158]	18%

same assay, conditions: HepaRG cells, electroporation with 1,000 nM antisense oligonucleotide, approx. 24 hours, PKK mRNA by RT-PCR (RTS3454), relative to untreated control cells; Table 26 experiment

Substance	% inhibition
548267 (antisense eG*eA*k[5mC]*d[5mC]*dT*d[5mC]*d[5mC]*dA*dG*dA*d[5mC]*dT*dA*k[5mC]*kT*eG) [compound 548267]	34%
548229 (e[5mC]*eA*kT*dT*dG*dT*dT*dG*dT*dG*dT*dG*dG*k[5mC]*k[5mC]*e[5mC]; antisense) [compound 548229]	31%
548238 (eA*e[5mC]*kT*d[5mC]*dG*d[5mC]*d[5mC]*dT*dT*dT*dG*dT*dG*kA*k[5mC]*eT; antisense) [compound 548238]	31%
548281 (antisense eG*eG*kT*dT*dG*dA*dG*dG*dG*dA*d[5mC]*dA*dG*kA*k[5mC]*eA) [compound 548281]	0%
548257 (antisense eA*eG*kT*dG*d[5mC]*dT*d[5mC]*d[5mC]*d[5mC]*d[5mC]*dA*dT*dG*k[5mC]*kA*eT) [compound 548257]	2%

same assay, conditions: HepaRG cells, electroporation with 1,000 nM antisense oligonucleotide, approximately 24 hours, primer probe set RTS3454, relative to untreated control cells; experiment of Table 23

Substance	% inhibition
547994 (antisense e[5mC]*e[5mC]*kA*dT*d[5mC]*d[5mC]*dA*dT*dA*dG*dA*dT*dA*kA*kT*e[5mC]) [compound 547994]	53%
547932 (e[5mC]*eG*kA*dT*dT*dT*dT*d[5mC]*d[5mC]*dA*dT*dA*d[5mC]*kA*kT*eT; antisense) [compound 547932]	33%
547962 (antisense eT*eT*kT*dG*d[5mC]*dA*dG*dG*dT*dT*dA*dA*dA*kA*kG*eG) [compound 547962]	16%
547923 (eA*eT*k[5mC]*dT*dG*dG*dA*dG*dT*dG*dA*dG*dA*kA*k[5mC]*e[5mC]; antisense) [compound 547923]	68%
547964 (antisense eG*eG*kT*dT*d[5mC]*dA*dG*dG*dT*dA*dA*dA*dG*kT*kT*e[5mC]) [compound 547964]	0%
547992 (antisense e[5mC]*e[5mC]*kT*dT*dA*d[5mC]*dA*dG*dT*d[5mC]*dT*dT*d[5mC]*kT*kG*eG) [compound 547992]	17%
547975 (antisense e[5mC]*eA*kA*dA*dG*dT*d[5mC]*dA*dA*d[5mC]*dT*d[5mC]*d[5mC]*k[5mC]*kG*eG) [compound 547975]	44%
547977 (antisense e[5mC]*e[5mC]*kT*d[5mC]*d[5mC]*dA*dA*dA*dG*dT*d[5mC]*dA*dA*k[5mC]*kT*e[5mC]) [compound 547977]	57%

same assay, conditions: HepaRG cells, electroporation with 1,000 nM antisense oligonucleotide, approximately 24 hours, primer probe set RTS3454, relative to untreated control cells; experiment of Table 24

Substance	% inhibition
548003 (eT*eA*kA*d[5mC]*d[5mC]*dA*dG*dA*dG*d[5mC]*dT*d[5mC]*d[5mC]*k[5mC]*kT*eT; antisense) [compound 548003]	66%
548009 (eG*eT*kT*dA*d[5mC]*dA*d[5mC]*dA*dA*dT*d[5mC]*dT*d[5mC]*kA*kA*eA; antisense) [compound 548009]	47%

same assay, conditions: PKK mRNA, HepaRG cells, 1,000 nM antisense oligonucleotide; Table 31

Substance	% inhibition
548659 (antisense e[5mC]*e[5mC]*kA*dA*d[5mC]*d[5mC]*dT*d[5mC]*dT*dA*dA*dG*dG*k[5mC]*kT*eA) [compound 548659]	17%
548664 (antisense eG*e[5mC]*kG*dG*dG*dT*dG*dG*dT*d[5mC]*dT*dT*dG*k[5mC]*kA*e[5mC]) [compound 548664]	38%
548638 (antisense e[5mC]*e[5mC]*kT*d[5mC]*dA*dT*dT*dG*d[5mC]*dT*d[5mC]*d[5mC]*dA*k[5mC]*kT*eA) [compound 548638]	26%
548649 (antisense eG*e[5mC]*k[5mC]*dT*d[5mC]*dT*d[5mC]*dA*dG*dA*d[5mC]*dG*dG*k[5mC]*kA*e[5mC]) [compound 548649]	0%
548618 (antisense eG*eT*kT*dG*dG*dT*dG*dG*d[5mC]*dG*dG*dG*dA*kT*k[5mC]*eG) [compound 548618]	18%
548632 (antisense eG*eG*kA*dG*dA*dT*dA*dT*d[5mC]*dA*dG*dG*dT*kG*k[5mC]*eA) [compound 548632]	45%

same assay, conditions: Table 19; HepaRG cells, electroporation with 1,000 nM antisense oligonucleotide, approximately 24 hours; PKK mRNA by RT-PCR (RTS3454), relative to untreated control cells

Substance	% inhibition
548119 (antisense eT*eG*kG*dA*d[5mC]*dT*dG*d[5mC]*dT*dT*d[5mC]*dT*d[5mC]*kA*kT*eG) [compound 548119]	25%

same assay, conditions: Table 20; HepaRG cells, electroporation with 1,000 nM antisense oligonucleotide, approximately 24 hours; PKK mRNA by RT-PCR (RTS3454), relative to untreated control cells

Substance	% inhibition
547867 (antisense e[5mC]*e[5mC]*kT*dT*dA*dG*dA*d[5mC]*dA*d[5mC]*dA*dT*dT*kA*kA*eA) [compound 547867]	34%
547874 (antisense eA*e[5mC]*kT*dG*d[5mC]*dT*dA*dA*d[5mC]*d[5mC]*dT*dT*dA*kG*kA*e[5mC]) [compound 547874]	70%

same assay, conditions: Table 21 experiment; HepaRG cells, electroporation with 1,000 nM antisense oligonucleotide, approx. 24 hours; PKK mRNA by RT-PCR (RTS3454), relative to untreated control cells

Substance	% inhibition
547796 (antisense eA*eT*k[5mC]*d[5mC]*d[5mC]*d[5mC]*dA*d[5mC]*d[5mC]*dT*d[5mC]*dT*dG*kA*kA*eG) [compound 547796]	35%
547804 (eG*eT*kG*dT*dA*d[5mC]*dA*dT*dG*dG*dA*dA*dG*k[5mC]*kT*eA; antisense) [compound 547804]	22%
547784 (antisense eG*e[5mC]*kT*dT*dG*dA*dA*dT*dA*dA*dA*dA*dT*k[5mC]*kA*eT) [compound 547784]	46%
547811 (eA*e[5mC]*k[5mC]*dT*d[5mC]*dA*dT*d[5mC]*dT*dG*dG*d[5mC]*dA*kG*kT*eA; antisense) [compound 547811]	49%
547787 (antisense eA*eA*kG*dT*dT*dG*d[5mC]*dT*dT*dG*d[5mC]*dT*dT*kG*kA*eA) [compound 547787]	22%
547842 (antisense eG*eA*kT*dG*dA*d[5mC]*d[5mC]*dA*d[5mC]*dA*dT*dT*dG*k[5mC]*kT*eT) [compound 547842]	10%
547829 (eA*e[5mC]*k[5mC]*dT*dG*dT*dT*d[5mC]*dG*dA*dT*dG*dT*kA*k[5mC]*eT; antisense) [compound 547829]	59%

same assay, conditions: Table 22 experiment; HepaRG cells, electroporation with 1,000 nM antisense oligonucleotide, approx. 24 hours; PKK mRNA by RT-PCR (RTS3454), relative to untreated control cells

Substance	% inhibition
547867 (antisense e[5mC]*e[5mC]*kT*dT*dA*dG*dA*d[5mC]*dA*d[5mC]*dA*dT*dT*kA*kA*eA) [compound 547867]	53%
547874 (antisense eA*e[5mC]*kT*dG*d[5mC]*dT*dA*dA*d[5mC]*d[5mC]*dT*dT*dA*kG*kA*e[5mC]) [compound 547874]	60%

same assay, conditions: Table 27; HepaRG cells, 1,000 nM antisense oligonucleotide; human PKK mRNA

Substance	% inhibition
548351 (antisense e[5mC]*eT*kG*dG*dA*dA*dA*d[5mC]*dG*dA*dG*dA*d[5mC]*kA*k[5mC]*eA) [compound 548351]	33%
548332 (antisense eG*eA*kT*dG*dA*dA*dA*dT*dG*dT*dG*d[5mC]*dA*k[5mC]*k[5mC]*eT) [compound 548332]	46%

same assay, conditions: Table 28; HepaRG cells, 1,000 nM antisense oligonucleotide; human PKK mRNA

Substance	% inhibition
548483 (e[5mC]*eT*kA*d[5mC]*dA*dG*dA*dT*d[5mC]*dA*dT*d[5mC]*d[5mC]*k[5mC]*kT*eA; antisense) [compound 548483]	5%
548502 (antisense eA*eA*kT*dT*d[5mC]*dT*dT*dG*dG*dA*d[5mC]*d[5mC]*dA*kA*kG*eG) [compound 548502]	25%
548469 (eT*eT*k[5mC]*d[5mC]*d[5mC]*dT*dA*d[5mC]*d[5mC]*d[5mC]*d[5mC]*dT*dG*kG*kT*eA; antisense) [compound 548469]	0%
548471 (eG*e[5mC]*kG*dG*dA*dA*dA*dA*d[5mC]*dT*dG*dG*d[5mC]*k[5mC]*kG*eT; antisense) [compound 548471]	17%
548466 (e[5mC]*eG*kT*d[5mC]*dA*d[5mC]*dT*dG*dT*dA*d[5mC]*d[5mC]*dT*kA*kT*eA; antisense) [compound 548466]	71%
548462 (eA*e[5mC]*k[5mC]*dT*dA*dT*dA*dT*d[5mC]*dA*d[5mC]*dT*dG*kT*kA*eA; antisense) [compound 548462]	0%
548524 (antisense eG*e[5mC]*k[5mC]*d[5mC]*dG*dA*dT*d[5mC]*dA*d[5mC]*d[5mC]*dT*dT*kA*kG*eA) [compound 548524]	45%

same assay, conditions: Table 30; human PKK mRNA, HepaRG cells, 1,000 nM antisense oligonucleotide

Substance	% inhibition
548419 (antisense e[5mC]*e[5mC]*kT*dA*dT*dA*dT*d[5mC]*dA*d[5mC]*dT*dG*dT*k[5mC]*k[5mC]*eT) [compound 548419]	52%
548443 (antisense eG*eT*kT*dT*d[5mC]*d[5mC]*dT*dA*dT*dA*dA*d[5mC]*dA*kG*kT*eA) [compound 548443]	12%
548444 (antisense e[5mC]*eT*kA*dT*dG*dT*d[5mC]*dA*d[5mC]*dT*dG*dT*dA*k[5mC]*k[5mC]*eT) [compound 548444]	43%
